Measurements taken from patent EP4745139A1, “COMPOUND FOR TREATING AND PREVENTING RESPIRATORY SYNCYTIAL VIRUS INFECTION DISEASES” (CSPC Zhongqi Pharmaceutical Technology (Shijiazhuang) Co., …, priority 2023, dated 2025).
pIC50: −log10 of the molar value.

Legend:
[1] = Pharmacokinetic experiment in mice after intragastric administration (plasma and lung tissue, LC/MS/MS); type: in vivo; conditions: ICR, mouse, intragastric administration at 20 mg/kg; for concentration at 6 h: lung, oral, read-out: Lung tissue drug concentration at 6 h; for half-life: plasma, po
Experimental: The compounds of the present invention for intragastric administration were dissolved in a suitable solvent to form a clear solution or suspension.
Administration mode and dosage: The compounds of the present invention were administered intragastrically at 10 mg/kg or 20 mg/kg.
Number of animals: 3 ICR mice per group for intragastric administration.
Sample collection: For the intragastric administration group, 100 µL of blood was collected (using pre-heparinized 100 µL Capillary Blood Collection Tubes) from the orbital vein of mice at 0.25 h, 0.5 h, 1 h, 2 h, 4 h, and 6 h after administration and placed in heparin sodium anticoagulant tubes. Mice plasma samples were obtained by centrifugation at 3000 g for 10 minutes within 2 hours. For the intragastric administration group, clean blood was collected at 6-hour time point and then lung tissues were collected.
Sample treatment: Plasma and lung tissue homogenates were subjected to protein precipitation with methanol at a certain ratio, and the supernatant was taken and diluted with 50% methanol-water at a certain ratio for sample loading.
Sample detection: The drug concentration in plasma was detected by the LC/MS/MS method, and the drug-time curve was plotted. Pharmacokinetic parameters (such as T1/2(h)/AUC0-t) were calculated by non-compartmental model statistical moments to describe the pharmacokinetic behavior of the compounds in mice after administration.
Data processing: Pharmacokinetic parameters were calculated by WinNonlin.

RSV = assay: In vivo pharmacodynamic assay: mouse RSV infection model, lung viral load by plaque assay; parameters: species or system BALB/c mice; conditions: 50 mpk, BID, 5 days administration; lung tissue, Day 5
Experimental: The compound of the present invention was dissolved in a suitable solvent to form a clear solution or suspension for intragastric administration. • Animals: BALB/c mice, 6-weeks old, female. • Establishment of in vivo RSV infection model: Mice were inoculated intranasally with the virus on Day 0, with an inoculation dose of 3.5 × 10^6 p.f.u. per mouse. • Grouping of animals: Animals were divided into a vehicle control group and an administration group, with 5 animals in each group.
Administration mode and dosage: The compound of the present invention was administered intragastrically at 100 mg/kg or 50 mg/kg, or the vehicle used for the compound of the present invention was administered intragastrically. The administration volume was 10 mL/kg.
Experimental procedure: Mice were inoculated intranasally with the virus on Day 0 at an inoculation dose of 3.5 × 10^6 p.f.u. per mouse. Mice were continuously treated with the compound of the present invention from Day 0 to Day 4 for 5 days at a dose of 50 mg/kg, once daily, via intragastric administration, with an administration volume of 10 mL/kg; the first administration was conducted 1 hour before virus inoculation. Alternatively, mice were treated once with the compound of the present invention on Day 0 at a dose of 100 mg/kg, via intragastric administration, with an administration volume of 10 mL/kg; the first administration was conducted 1 hour before virus inoculation. On Day 5, mice were euthanized, and lung tissue samples were collected. Animals were observed daily from Day 0 to Day 5, and the body weight, health status, and survival status were recorded.
Sample processing: After lungs were collected, they were quickly frozen in the HBSS* solution at a 10-fold weight-to-volume ratio (w:v (g:mL) = 1:10), and stored in a -80°C refrigerator for plaque assay to detect viral load.
Sample detection: Viral load in lung tissues was detected by plaque assay. […]

RSV strain A2 = assay: Antiviral detection test against RSV strain A2 based on ELISA method (Hep-2 cells); type: cell-based, Respiratory Syncytial Virus; conditions: for pIC50: human respiratory syncytial virus, RSV A2 virus strain, Hep-2 cells, ELISA OD450; for AK0529 IC50 / IC50 of the compounds of the present invention: ratio of IC50 values against RSV A2 virus strain, control compound AK0529
Experimental: Test Example 1: Antiviral detection test of small molecules against RSV strain A2 based on ELISA method
• Source of cell line: Nanjing Kebai Biotechnology Co., Ltd. • Cell type: human laryngeal carcinoma epithelial cells Hep-2
• 96-well culture plate (Cat.No. 3610, Corning Costar); • Fetal bovine serum (Cat.No. 10099-141, GIBCO); • DMEM medium (Cat.No. 11995500BT, GIBCO); • Envision 2104 microplate reader.
• 1. Day 1: The Hep-2 cells were seeded into a 96-well plate at a density of 1×10^4 cells/well; • 2. Day 2: • A. Compound dilution: The compound in the first well was diluted to 9 µM, and 3-fold gradient dilution was performed, with a total of 10 gradients; • B. The Hep-2 cell plate prepared on Day 1 was taken out from the incubator, the supernatant was discarded, and 100 PFU/well/50 µL of the RSV A2 virus was added to each well. The plate was stood at 37°C in a 5% CO2 incubator for 2 hours, the supernatant was aspirated and discarded, and then 100 µL of the gradient-diluted compound or DMEM maintenance medium containing 2% FBS was added to each well; • 3. Day 5: • A. Add fixative: The gradient-diluted compound or medium was discarded from the wells, and 100 µL/well of fixative (4% paraformaldehyde) was added. The plate was stood at room temperature for 10 minutes, and then was washed once with 250 µL PBS; • B. 100 µL/well of a blocking solution was added, and the plate was incubated at 37°C in a 5% CO2 incubator for 30 minutes; • C. After incubation, the detection antibody (Anti RSV Fpro) was added at 0.3 µg/50 µL/well (6 µg/mL), and the plate was incubated at 37°C in a 5% CO2 incubator for 1 hour; • D. After incubation, the HRP secondary antibody was added (diluted 10,000-fold with 0.2% BSA), and the plate was incubated at 37°C in a 5% CO2 incubator for 1 hour; • E. After incubation, the wells were washed for 4 times with PBST, 250 µL/well, each washing was allowed to stand for 5 minutes, and the liquid in the wells was shaken off after completion of the washing; • F. 100 µL/well of a development solution was added, the plate was incubated at room temperature in the dark for 20 minutes, and 50 µL/well of a reaction termination solution was added. The plate was tapped gently to mix the solutions, and the absorbance at 450 nm was measured using the microplate reader. • 4. Data analysis • Inhibition rate of the compound against the virus = 100% - (SC - CC)/(VC - CC) × 100% • SC: OD450 value of the sample (cells + test compound + virus) • CC: OD450 value of the normal growing cell control (cells) • VC: OD450 value of the virus growth control (cells + virus)
The software Graphpad Prism 6 was used, and the calculation formula XY-analysis/Nonlinear regression (curve fit)/Dose response-Inhibition/log (inhibition) vs. response-Variable slope (four parameters) was adopted to fit the IC50 curve and calculate the IC50 value.

SMILES | concentration at 6 h [1] | half-life [1] | log (RSV Viral Load) Mean (RSV) | pIC50 (RSV strain A2) | AK0529 IC50 / IC50 of the compounds of the present invention (RSV strain A2)
Cc1ccc2nc(N3CCS(=O)(=O)c4ccccc4C3)nc(NCC3(N)COC3)c2c1 [AK0529, reference compound] | 1210 ng/g | 93 min | 3.06 |  | 
Cc1ccc2nc(N3CCS(=O)(=NC4CC4)c4ccccc4C3)nc(NCC3(N)COC3)c2c1C (stereo not drawn) [Example 4-15, 4-(4-(((3-aminooxetan-3-yl)methyl)amino)-5,6-dimethylquinazolin-2-yl)-1-(cyclopropylimino)-2,3,4,5-tetrahydro-benzo[f][1,4]thiazepine-1-oxide] | 5130 ng/g | 96.6 min |  |  | 
Cc1ccc2nc(N3CCS(=O)(=NC4CCOC4)c4ccccc4C3)nc(N3CC[C@H](N)C3)c2c1 (stereo partly drawn) [Example 4-67] | 8220 ng/g | 130 min |  | > 8.00 | 
COCC(C)N=S1(=O)CCN(c2nc(N3CC[C@H](N)C3)c3cc(C)ccc3n2)Cc2ccccc21 (stereo partly drawn) [Example 4-69] | 6010 ng/g | 137 min |  | > 8.00 | 
NC1CN(c2nc(N3CCS(=O)(=NC4CC4)c4ccccc4C3)nc3ccc(C(F)F)cc23)C1 (stereo not drawn) [Example 4-17, 4-(4-(3-aminoazetidin-1-yl)-6-(difluoromethyl)quinazolin-2-yl)-1-(cyclopropylimino)-2,3,4,5-tetrahydro-benzo[f][1,4]thiazepine-1-oxide] | 75800 ng/g | 317 min |  | > 8.00 | ratio ≥20
Cc1ccc2nc(N3CCS(=O)(=NC4CC4)c4ccccc4C3)nc(N3CC[C@@H](N)C3)c2c1 (stereo partly drawn) [Example 4-12] | 29700 ng/g | 386 min |  | > 8.00 | 
Cc1ccc2nc(N3CCS(=O)(=NC4CC4)c4ccccc4C3)nc(N3CC4C(N)C4C3)c2c1 (stereo not drawn) [Example 4-8, 4-(4-(6-amino-3-azabicyclo[3.1.0]hexan-3-yl)-6-methylquinazolin-2-yl)-1-(cyclopropylimino)-2,3,4,5-tetrahydro-benzo[f][1,4]thiazepine-1-oxide] | 25300 ng/g | 648 min |  |  | 
Cc1ccc2nc(N3CCS(=O)(=NC4CC4)c4ccccc4C3)nc(N3CC(N)C3)c2c1 (stereo not drawn) [Example 4-76, 4-(4-(3-aminoazetidin-1-yl)-6-methylquinazolin-2-yl)-1-(cyclopropylimino)-2,3,4,5-tetrahydrobenzo[f][1,4]thiazepine-1-oxide] | 28800 ng/g |  |  | > 8.00 | ratio ≥20
Cc1ccc2nc(N3CCS(=O)(=NC4CC4)c4ccccc4C3)nc(N3CC(CN)C3)c2c1 (stereo not drawn) [Example 4-9, 4-(4-(3-(aminomethyl)azetidin-1-yl)-6-methylquinazolin-2-yl)-1-(cyclopropylimino)-2,3,4,5-tetrahydro-benzo[f][1,4]thiazepine-1-oxide] | 5920 ng/g | 373 min |  | > 8.00 | 
N[C@H]1CCN(c2nc(N3CCS(=O)(=NCC4CCO4)c4ccccc4C3)nc3ccc(C(F)F)cc23)C1 (stereo partly drawn) [Example 4-74, 4-(4-((S)-3-aminopyrrolidin-1-yl)-6-(difluoromethyl)quinazolin-2-yl)-1-((oxetan-2-ylmethyl)imino)-2,3,4,5-tetrahydro-benzo[f][1,4]thiazepine-1-oxide] | 7170 ng/g | 149 min |  | > 8.00 | ratio ≥20
Cc1ccc2nc(N3CCS(=O)(=NC4CCOC4)c4ccccc4C3)nc(N3CC[C@@H](N)C3)c2c1 (stereo partly drawn) [Example 4-43] | 19200 ng/g | 140 min |  | > 8.00 | 
Cc1ccc2nc(N3CCS(=O)(=NC4CC4)c4ccccc4C3)nc(N[C@@H]3CNC[C@H]3O)c2c1 (stereo partly drawn) [Example 4-10, 1-(cyclopropylimino)-4-(4-(((3R,4R)-4-hydroxypyrrolidin-3-yl)amino)-6-methylquinazolin-2-yl)-2,3,4,5-tetrahydro-benzo[f][1,4]thiazepine-1-oxide] |  |  |  | > 8.00 | 
Cc1ccc2nc(N3CCS(=O)(=NC4CC4)c4ccccc4C3)nc(N[C@H]3CNC[C@@H]3F)c2c1 (stereo partly drawn) [Example 4-24, 1-(cyclopropylimino)-4-(4-(((3S,4S)-4-fluoropyrrolidin-3-yl)amino)-6-methylquinazolin-2-yl)-2,3,4,5-tetrahydrobenzo[f][1,4]thiazepine-1-oxide] | 15400 ng/g | 269 min |  | > 8.00 | ratio ≥20
Cc1ccc2nc(N3CCS(=O)(=NC4CC4)c4ccccc4C3)nc(NCC3(N)COC3)c2c1 (stereo not drawn) [Example 2-26, 4-(4-(((3-aminooxetan-3-yl)methyl)amino)-6-methylquinazolin-2-yl)-1-(cyclopropylimino)-2,3,4,5-tetrahydro-1H-1λ^4-benzo[f][1,4]thiazepine-1-oxide] |  |  |  | > 8.00 | 
COCCCN=S1(=O)CCN(c2nc(N3CC[C@H](N)C3)c3cc(C)ccc3n2)Cc2ccccc21 (stereo partly drawn) [Example 4-71] |  |  |  | > 8.00 | 
N[C@H]1CCN(c2nc(N3CCS(=O)(=NC4CC4)c4ccccc4C3)nc3ccc(C(F)F)cc23)C1 (stereo partly drawn) [Example 4-62, 4-(4-((S)-3-aminopyrrolidin-1-yl)-6-(difluoromethyl)quinazolin-2-yl)-1-(cyclopropylimino)-2,3,4,5-tetrahydro-benzo[f][1,4]thiazepine-1-oxide] | 53100 ng/g |  |  | > 8.00 | 
